US12629359B2 (UNIVERSITA' DEGLI STUDI DI BRESCIA, priority 2020, dated 2026)

Experiments:
SYN120 tg mice [1] = assay: Open-field motility after chronic 6 weeks treatment in SYN120 tg mice; type: in vivo, mouse; settings: daily i.p. 5 mg/kg for 6 weeks, vs vehicle
Protocol: Two groups of 12 month-old SYN120 tg mice (N=4 animals per group) were subjected to daily i.p. administration of either vehicle or compound I-threo (5 mg/kg) for 6 weeks. All experiments were made in accordance with Directive 2010/63/EU of the European Parliament and of the Council of 22 Sep. 2010 on the protection of animals used. All experimental or surgical procedures conformed to the National Research Guide for the Care and Use of Laboratory Animals and were approved by the Animal Research Committees of the University of Brescia (Protocol Permit 719/2015-PR). At the end of treatment, the total distance travelled by the mice was recorded in the open field arena. […] Student's t-test. N=3 for each experimental group.

SYN120 tg mice [2] = assay: Immunohistochemistry of nigrostriatal alpha-synuclein deposition and striatal dopaminergic fibers after chronic treatment of SYN120 tg mice; type: in vivo, mouse; settings: daily i.p. 5 mg/kg for 6 weeks
Excerpt: After the behavioral studies animals were sacrificed by transcardiac perfusion to collect their brains, which were used for immunohistochemical studies aimed at evaluating the efficacy of compound I-threo to reduce pathological alpha-synuclein deposition and neuroprotection in the nigrostriatal system.
First, we quantified aggregated alpha-synuclein pathological deposition by using an antibody specifically recognizing aggregated alpha-synuclein in the subtantia nigra and striatum of mice.
Then alpha-synuclein aggregation was evaluated also by using Thioflavin-S a dye recognizing fibrillary aggregates. […] Please note that dopaminergic neurons or fibers in the images were labelled in light blue.
Finally, we evaluated the neuroprotective effect of the chronic treatment with compound I-threo by quantifying the recovery of striatal dopaminergic fibers in the SYN120 tg mice treated with the compound when compared to the vehicle-treated animals.

Q: What does the source list for `COC(=O)[C@@H](c1ccc(C)cc1)C1CCCCN1.Cl` (stereo partly drawn) [I-threo, threo methyl 2-(piperidin-2-yl)-2-(p-tolyl)acetate hydrochloride]?
A: total motility (total distance travelled) in open field (SYN120 tg mice [1]): significant improvement in total motility; Thioflavin-S signal in substantia nigra and striatum (SYN120 tg mice [2]): marked reduction of thioflavin-S signal; aggregated alpha-synuclein in substantia nigra and striatum (SYN120 tg mice [2]; vs vehicle): statistically significant reduction of aggregated alpha-synuclein; striatal TH-positive dopaminergic fibers (SYN120 tg mice [2]; vs vehicle): significant recovery of striatal TH-positive dopaminergic fibers
